Holding throughout (assay): NCI SRB growth inhibition (single dose 10 µM / five-dose)
Format in all cases: cell-based, human

In one assay the test system is SK-MEL-5. As to conditions: Homo sapiens; SK-MEL-5 (Melanoma), 10 µM; read-out: GI%. The method, boiled down:
(§1)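 Test agents were dissolved in DMSO at 400-fold the top final concentration, diluted in medium with 50 µg/mL gentamicin, and tested at five concentrations.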

In a further assay the test system is 786–0. As to conditions: Homo sapiens; 786–0 (Renal cancer), 10 µM; read-out: GI%. The method in brief:
as §1

The next assay deals with SW-620. As to conditions: Homo sapiens; SW-620 (Colon cancer), 10 µM; read-out: GI%. The method in brief:
as §1

For a further assay, the system named is NCI/ADR-RES. As to conditions: Homo sapiens; NCI/ADR-RES (Ovarian cancer), 10 µM; read-out: GI%. The method, boiled down:
as §1

In the next assay the test system is SK-MEL-28. As to conditions: Homo sapiens; SK-MEL-28 (Melanoma), 10 µM; read-out: GI%. The method in brief:
as §1

The next assay concerns SF-539. As to conditions: Homo sapiens; SF-539 (CNS cancer), 10 µM; read-out: GI%. The method in brief: as §1
Another assay relates to T-47D. As to conditions: Homo sapiens, T47D; T-47D (Breast cancer), 10 µM; read-out: GI%. The method in brief:
as §1

The subject of the next assay is IGROV1. As to conditions: Homo sapiens, IGROV-1; IGROV1 (Ovarian cancer), 10 µM; read-out: GI%. The method in brief: as §1
The next assay concerns SF-295. As to conditions: Homo sapiens; SF-295 (CNS cancer), 10 µM; read-out: GI%. The method, boiled down: as §1
Another assay relates to UO-31. As to conditions: Homo sapiens; UO-31 (Renal cancer), 10 µM; read-out: GI%. The method in brief: as §1
For another assay, the system named is K-562. As to conditions: Homo sapiens, K562; K-562 (Leukemia), 10 µM; read-out: GI%. The method in brief:
as §1

For the next assay, the system named is M14. As to conditions: Homo sapiens; M14 (Melanoma), 10 µM; read-out: GI%. The method in brief: as §1
The next assay relates to HCT-116. As to conditions: Homo sapiens, HCT-116; read-out: GI%. The method, boiled down:
as §1

In the next assay the test system is SK-OV-3. As to conditions: Homo sapiens; SK-OV-3 (Ovarian cancer), 10 µM; read-out: GI%. The method in brief: as §1
The next assay concerns OVCAR-4. As to conditions: Homo sapiens; OVCAR-4 (Ovarian cancer), 10 µM; read-out: GI%. The method, boiled down: as §1
The test system of a further assay is NCI-H226. As to conditions: Homo sapiens; NCI-H226 (Non-small cell lung cancer), 10 µM; read-out: GI%. The method in brief:
as §1

The subject of another assay is OVCAR-3. As to conditions: Homo sapiens; OVCAR-3 (Ovarian cancer), 10 µM; read-out: GI%. The method in brief: as §1
In a further assay the test system is RXF 393. As to conditions: Homo sapiens; RXF 393 (Renal cancer), 10 µM; read-out: GI%. The method in brief:
as §1

The subject of a further assay is TK-10. As to conditions: Homo sapiens; TK-10 (Renal cancer), 10 µM; read-out: GI%. The method, boiled down: as §1
For a further assay, the system named is MALME-3 M. As to conditions: Homo sapiens; MALME-3 M (Melanoma), 10 µM; read-out: GI%. The method in brief:
as §1

A further assay deals with UACC-62. As to conditions: Homo sapiens; UACC-62 (Melanoma), 10 µM; read-out: GI%. The method in brief: as §1
In a further assay the test system is MDA-MB-435. As to conditions: Homo sapiens; MDA-MB-435 (Melanoma), 10 µM; read-out: GI%. The method, boiled down: as §1
For another assay, the system named is RPMI-8226. As to conditions: Homo sapiens; RPMI-8226 (Leukemia), 10 µM; read-out: GI%. The method, boiled down: as §1

Where only a bound is given, the exact number is not on record here.

Take `COc1cccc(C=NNC(=O)c2ccc3[nH]c(-c4ccccc4)nc3c2)c1` [8c, N'-(3-Methoxybenzylidene)-2-phenyl-1H-benzo[d]imidazole-5-carbohydrazide]: the inhibition at 10 µM in the assay on SK-MEL-5 was 39%; in the assay with 786–0, 21.3%; in the assay with SW-620, under 5%; in the assay with NCI/ADR-RES, 6.59%; in the assay on SK-MEL-28, 20.4%; with SF-539 it was 28.6%. The inhibition at 10 µM worked out at 69.1% in the assay with T-47D; 10.1% in the assay on IGROV1; 18.5% in the assay with SF-295; 30.6% in the assay on UO-31; 41.7% in the assay with K-562; 8.28% in the assay on M14. In addition, the inhibition at 10 µM in the assay with HCT-116 was found to be 12.7%; with SK-OV-3 it was 64%; in the assay with OVCAR-4, 20.1%; with NCI-H226 it was 19.3%; in the assay with OVCAR-3, 7.38%; in the assay on RXF 393 it was 29.2%. Besides, the inhibition at 10 µM in the assay with TK-10 was under 5%; in the assay with MALME-3 M it was 47.1%; in the assay with UACC-62, 14.7%; with MDA-MB-435, 18.9%; in the assay on RPMI-8226, 81.6%.
